Source: patent publication US20200345021A1, “METHOD AND SYSTEM FOR ENHANCING THE EFFICACY USING IONIZED/A[…] PEROXIDE IN REDUCING MICROBIAL POPULATIONS, METHOD OF USE THEREOF” (priority 2019, published 2020)
Values joined by “and” are separate entries in the source; they are usually repeats but may differ in a detail not shown here. Equal entries are not always repeated. Where two headings read alike, the source gives them in different places. Marks after values point to notes of the source that are not given here.

Legend:
[1] = test system: total aerobic plate count (APC), native microorganisms; settings: for Total plate count: not inoculated
Method: (§1) The untreated (control) and treated samples were placed separately in a Stomacher bag with 20˜100 ml of neutralizing buffer and pummeled at 260 rpm for 2 mm using Stomacher (Interscience Laboratories Inc.). Decimal dilutions of the samples were made with 0.1% peptone (Difco) and aliquots (0.1 or 1 ml) were spread plated in duplicate onto TSA with incubation at 37° C. for 24 h for the enumeration of total aerobic plate count (APC), and onto Dichloran Rose Bengal Chlortetracycline (DRBC, Difco) agar with incubation at 25° C. for 5 days for enumeration of yeast and mold. DRBC plates were wrapped with aluminum foil to […]. Experiments were conducted independently 8 times. Colonies were counted and reported as log CFU/piece.
(§2) Produce items were placed onto a sterile test tube tack with inoculated area facing up. […] The distance and voltage between the two electrodes were 9 mm and 17 kV, respectively. […] After 45 s treatment, the chamber was sealed for 30 mins (dwell time) before removal of the fresh produce items. Experiment; were repeated three times.

yeast and mold = settings: for Yeast and mold count: not inoculated
Method: as §1, §2

Salmonella Typhimurium = assay type: cell-based; settings: for Reductions of Salmonella, range over the fresh produce items: all tested produce items and surfaces, optimized conditions
Description: To minimize the risk of possible bacteria becoming airborne during treatments, attenuated and non-pathogenic bacteria were used in the study. Two strains of non-pathogenic S. Typhimurium (ATCC 53647 and 53648) and three strains of L. innocua (ATCC 33090, ATCC 51742 and ATCC BAA680) were obtained from American Type Culture Collection (ATCC) (Manassas, Va., USA). Further studies used E. coli O157:H7 (ATCC 700728), S. Typhimurium (ATCC 53647 and 53648), and L. innocua (ATCC 33090) obtained from American Type Culture Collection (ATCC) (Manassas, Va., USA) and maintained as a part of the culture collection at the USDA Eastern Regional Research Center (Wyndmoor, Pa. USA). The bacteria were made to be resistant to nalidixic acid by successive growth in Trypic Soy Broth (TSB) (Difco, Sparks, Md., USA) with increasing nalidixic acid concentrations. All strains were stored at −80° C. in 1 mL of TSB containing 10% glycerol. Working cultures of S. Typhimurium and L. innocua were maintained in 9 mL TSB (supplemented with 100 μg/mL nalidixic acid for S. Typhimurium) at 4° C. after incubating at 37° C. for […], respectively, and sub-cultured each time.
Each strain of S. Typhimurium and L. innocua was cultured in 9 mL TSB (supplemented with 100 μg/mL nalidixic acid for S. Typhimurium) and incubated at 37° C. for 40 h and 48 h, respectively, harvested by centrifugation at 4000×g for 10 min at 4° C., and resuspended in 9 mL sterile Buffered Peptone Water (BPW; Difco). The pellets were resuspended in BPW to form cell suspensions with a final concentration of 108˜10^9 CFU/mL. Subsequently, suspended pellets of two strains of Salmonella and three strains of L. innocua were combined to obtain two separate culture cocktails.
Grape tomatoes, granny smith apples, romaine lettuce and cantaloupes were purchased from local markets (Philadelphia, Pa., USA) and kept at 10° C. prior to use. Fruits and vegetables were removed from 10° C. refrigeration and equilibrated to ambient temperature before being inoculated. Romaine lettuce was divided into upper green leaf and midrib tissues. Six tomatoes, six pieces (2×2 cm) of apple skins, five pieces (3×3 cm) of Romaine lettuce upper leaves, five pieces (3 cm length) of Romaine lettuce midrib area and six pieces (2×2 cm) of cantaloupe rinds with 2×3 mm thickness of flesh were used for each treatment per replicate. Bach piece w as spot inoculated with 10 μL of Salmonella and L. innocua by depositing droplets with a micropipette. The inoculated samples were dried in a bio-hood for 1 h (for tomato surfaces, romaine lettuce, apple skins and cantaloupe rinds) or 2 h (for tomato stem scars) at ambient temperature.
Produce items were placed onto a sterile test tube rack with the inoculated area facing up and the rack with produce pieces were placed inside of a treatment chamber (12×12×24 inch).
Therefore, each kind of produce was treated with and without cold plasma ionized under the same optimized conditions.
After each treatment, the tomato stem scars and surfaces with the inoculated bacteria were removed using a pair of sterile scissors. Each type of produce item from the same treatment was combined (total weight: 1.51±0.29 g for tomato stem scars; 2.07±0.15 g for tomato surfaces; 6.37±0.92 g for apple skins; 1.62±0.34 g for Romaine lettuce upper leaves: 13.30±2.97 g for Romaine lettuce midrib tissues: 9.58±1.26 g for cantaloupe rinds) and transferred into an 80 mL filtered stomacher bag. After addition of 30 mL BBL buffered peptone water into the bag, the sample in the bag was homogenized using a mini blender (Mini Mix CC, Interscience laboratories Inc., Woburn, Mass., USA) for 2 min at a setting of 4. […] Tryptic Soy Agar with 200 μg/mL pyruvate acid and 100 μg/mL nalidixic acid (TSA-PN) and PALCAM Agars (Difco) were used for the enumeration of S. Typhimurium and L. innocua, respectively.

L. innocua = settings: 45 s treatment + 30 min dwell
[2] = Cantaloupe rind, 30 s spray time + 30 min dwell, listed as H2O2 + cold plasma
[3] = Romaine lettuce-midrib, 30 s spray time + 30 min dwell, listed as H2O2 + cold plasma
[4] = Romaine lettuce-upper leaf, 30 s spray time + 30 min dwell, listed as H2O2 + cold plasma
[5] = Tomato-stem scar, three cycles of 20 s spray time plus 20 min dwell time, listed as H2O2 + cold plasma

OO [H2O2, hydrogen peroxide]
Total plate count ([1]; cantaloupe): 4.6 +/− 1.2a Log CFU/piece | Reduction in APC ([1]; spinach leaves): 1.3 log | Total plate count ([1]; spinach): 4.7 +/− 1.3b Log CFU/piece | Total plate count ([1]; tomato): 5.4 +/− 0.5b Log CFU/piece | Reduction in APC ([1]; tomatoes): 0.5 log | Yeast and mold count (yeast and mold; cantaloupe): 4.7 +/− 0.9a Log CFU/piece | Reduction of yeast and mold count (yeast and mold; spinach): 2.2 log | Yeast and mold count (yeast and mold; spinach): 4.2 +/− 2.0b Log CFU/piece | Reduction of yeast and mold count (yeast and mold; tomato): 3.9 log | Yeast and mold count (yeast and mold; tomato): 2.2 +/− 1.5b Log CFU/piece | Populations of Salmonella Typhimurium (Salmonella Typhimurium; [2]): 3.76 ± 0.53^c log CFU/piece | Reductions of Salmonella Typhimurium (Salmonella Typhimurium; [2]): 2.61 ± 0.53^x log CFU/piece | Reductions of Salmonella Typhimurium (Salmonella Typhimurium; Granny Smith apples, 8 s spray time + 30 min dwell, listed as H2O2 + cold plasma): 5.50 ± 0.19^x log CFU/piece | Reductions of Salmonella Typhimurium (Salmonella Typhimurium; Granny Smith apples, 8 s spray time + 30 min dwell, listed as iHP): > 5 log CFU/piece | Populations of Salmonella Typhimurium (Salmonella Typhimurium; [3]): 2.54 ± 0.32^c log CFU/piece | Reductions of Salmonella Typhimurium (Salmonella Typhimurium; [3]): 3.40 ± 0.32^x log CFU/piece | Populations of Salmonella Typhimurium (Salmonella Typhimurium; [4]): 3.54 ± 0.11^c log CFU/piece | Reductions of Salmonella Typhimurium (Salmonella Typhimurium; [4]): 2.88 ± 0.11^x log CFU/piece | Populations of Salmonella Typhimurium (Salmonella Typhimurium; [5]): 3.60 ± 0.70^c log CFU/piece | Reductions of Salmonella Typhimurium (Salmonella Typhimurium; [5]): 2.35 ± 0.30^x log CFU/piece | Reductions of Salmonella Typhimurium (Salmonella Typhimurium; Tomato-surface, 8 s spray time + 30 min dwell, listed as H2O2 + cold plasma): 5.28 ± 0.49^x log CFU/piece | Reductions of Salmonella Typhimurium (Salmonella Typhimurium; Tomato-surface, 8 s spray time + 30 min dwell, listed as iHP): > 5 log CFU/piece | Reductions of Salmonella, range over the fresh produce items (Salmonella Typhimurium; listed as hydrogen peroxide (H2O2) with cold plasma): 2.35-5.50 log CFU/piece | Reductions of Salmonella, range over the fresh produce items (Salmonella Typhimurium; listed as iHP): 2.35-5.50 log CFU/piece | Reduction of Salmonella (S. Typhimurium): 4.2 log CFU/leaf | Populations of L. innocua (L. innocua; cantaloupe): 3.5 +/− 0.2b log CFU/piece | Reduction of L. innocua (L. innocua; cantaloupe): 3.0 log CFU/piece | Populations of L. innocua (L. innocua; spinach): 2.5 +/− 1.9b log CFU/piece | Reduction of L. innocua (L. innocua; surface of spinach leaves): 4.0 log CFU/leaf | Reduction of L. innocua (L. innocua; tomato stem scar area, listed as ionized/aerosolized hydrogen peroxide (H2O2)): 1.0-1.3 log CFU/piece and 1.3 log CFU/piece | Populations of L. innocua (L. innocua; tomato stem scar): 4.9 +/− 0.4b log CFU/piece
